Values quoted from earlier work as cited in patent US20140234397A1 (priority 2013, published 2014).
Read-outs that look alike come from different tables or passages of the source.

Columns and labels:
[1] = rat; for removal of toxin: radio-tagged metal (CO60) removed from the liver
[2] = humans

For `N[C@@H](CCC(=O)N[C@@H](CS)C(=O)NCC(=O)O)C(=O)O` [Plain glutathione, glutathione], the toxin remaining ([1]; radio-tagged metal (CO60) in the liver) is listed as 100%, the removal of toxin [1] is listed as 0% and the removal of toxin ([1]; listed as Intravenous glutathione) is listed as 64%. For the same compound, the “absorption after oral ingestion” value [2] was “not absorbed”.
